Test results as given in ChEMBL document CHEMBL1201862, “PubChem BioAssay data set” (2004).
“And” between values parts separate entries of the source, which are not always exact repeats. Equal entries are not always repeated. The source made the active and inactive calls.

Assays:
Kallikrein-7 = Kallikrein-7 (Homo sapiens, UniProt P49862); assay: Fluorescence Intensity-based biochemical primary high throughput dose response assay to identify activators of kallikrein-7 (K7) zymogen.
[1] = Late-stage results from the probe development effort to identify antagonists of arginine vasopressin receptor 1a (AVPR1a): fluorescence-based cell-based dose response OXTR inhibition counterscreen assay.; format: functional
Vasopressin V2 receptor = Vasopressin V2 receptor (Homo sapiens, UniProt P30518); assay: Late-stage results from the probe development effort to identify antagonists of arginine vasopressin receptor 1a (AVPR1a): fluorescence-based cell-based dose response AVPR2 inhibition counterscreen assay.; format: functional
Vasopressin V1b receptor = Vasopressin V1b receptor (Homo sapiens, UniProt P47901); assay: Late-stage results from the probe development effort to identify antagonists of arginine vasopressin receptor 1a (AVPR1a): fluorescence-based cell-based dose response AVPR1b inhibition counterscreen assay.; format: functional
[2] = Late-stage results from the probe development effort to identify antagonists of arginine vasopressin receptor 1a (AVPR1a): fluorescence-based cell-based dose response AVPR1a inhibition assay.; format: functional
Tumor necrosis factor = Tumor necrosis factor (Homo sapiens, UniProt P01375); assay: analog potency on TNFa NF-kB signaling – cell-based, revised, SAR follow-up (AID 2337); format: functional
HEK293 [3] = assay: NOD2 signaling inhibitors in MDP-stimulated cells, cell-based, uHTS, luminescence (AID 2001); format: functional; conditions: Homo sapiens
HEK293 [4] = assay: cells; format: functional, cell-based; conditions: Homo sapiens
[5] = target: T1, Nucleotide-binding oligomerization domain-containing protein 1 (Homo sapiens, UniProt Q9Y239); assay: blockers of NOD1 pathway activity – revised, SAR follow-up (AID 2333); format: functional
T1 sequence (Q9Y239 whole entry): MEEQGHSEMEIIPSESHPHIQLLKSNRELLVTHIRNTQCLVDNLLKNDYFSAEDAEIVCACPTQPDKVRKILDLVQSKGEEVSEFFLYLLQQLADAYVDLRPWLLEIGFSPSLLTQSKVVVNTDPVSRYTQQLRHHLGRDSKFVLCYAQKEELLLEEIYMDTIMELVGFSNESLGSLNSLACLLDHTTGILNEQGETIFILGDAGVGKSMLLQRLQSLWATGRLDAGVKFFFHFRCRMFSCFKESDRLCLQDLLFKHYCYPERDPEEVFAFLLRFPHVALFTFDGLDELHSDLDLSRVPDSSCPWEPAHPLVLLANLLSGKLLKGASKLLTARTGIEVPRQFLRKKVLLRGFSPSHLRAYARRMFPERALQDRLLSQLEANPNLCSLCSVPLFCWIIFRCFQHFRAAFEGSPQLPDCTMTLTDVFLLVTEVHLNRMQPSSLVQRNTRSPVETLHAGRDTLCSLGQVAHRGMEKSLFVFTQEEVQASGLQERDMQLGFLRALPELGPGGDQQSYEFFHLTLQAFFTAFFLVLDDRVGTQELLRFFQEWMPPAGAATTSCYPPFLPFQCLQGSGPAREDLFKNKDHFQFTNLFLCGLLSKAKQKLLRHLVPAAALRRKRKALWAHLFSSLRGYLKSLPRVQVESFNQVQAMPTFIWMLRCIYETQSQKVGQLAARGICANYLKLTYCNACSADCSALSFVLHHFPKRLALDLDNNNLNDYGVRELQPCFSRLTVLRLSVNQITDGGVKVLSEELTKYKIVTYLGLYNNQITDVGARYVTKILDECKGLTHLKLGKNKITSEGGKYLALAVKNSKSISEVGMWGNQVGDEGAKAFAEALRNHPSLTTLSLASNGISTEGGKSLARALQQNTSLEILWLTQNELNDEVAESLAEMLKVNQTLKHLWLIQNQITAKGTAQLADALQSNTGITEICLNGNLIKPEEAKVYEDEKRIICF

HEK293 [6] = assay: cells; conditions: Homo sapiens
[7] = potency of ADAM10 substrate cleavage blockers – biochemical, QFRET, dose response (AID 743254);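 note: ADAM10 enzyme with the DM2 quenched FRET peptide as substrate; EDANS fluorescence gain as the protease cuts the substrate; inhibitor potency against ADAM10 proteolytic activity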
HEK293 [8] = assay: inhibition of NOD1-driven NF-kB reporter – cell-based, luminescence, uHTS, primary screen (AID 1578); format: functional; conditions: Homo sapiens
[9] = target: Disintegrin and metalloproteinase domain-containing protein 17 (Homo sapiens, UniProt P78536); assay: inhibition of ADAM17 substrate cleavage – biochemical, quenched FRET substrate, counter-screen for ADAM10 exosite inhibitor project, dose response (AID 743253)
HEK293 [10] = assay: cells; format: functional, cell-based; conditions: Homo sapiens; remark: listed apart in the source
[11] = target: Sphingosine 1-phosphate receptor 2 (Homo sapiens, UniProt O95136); assay: Dose Response Cell Based Assay for Agonists of the S1P2 Receptor. [Related pubchem assays: 729, 736, 843 ]; format: functional
HEK293 [12] = assay: cells; format: functional, cell-based; conditions: Homo sapiens; remark: listed apart in the source
[13] = target: T2, Oxysterols receptor LXR-beta (Homo sapiens, UniProt P55055); format: functional, cell-based;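 note: Cell-based luminescence dose-response assay of agonist activity at LXR, run as a confirmatory counterscreen to a daf-12 agonist screen; HEK293 cells with Gal4-LXR fusion and GAL4-driven luciferase reporter; agonist potency from rising luciferase signal of a Gal4-LXR reporter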
T2 sequence (P55055 whole entry): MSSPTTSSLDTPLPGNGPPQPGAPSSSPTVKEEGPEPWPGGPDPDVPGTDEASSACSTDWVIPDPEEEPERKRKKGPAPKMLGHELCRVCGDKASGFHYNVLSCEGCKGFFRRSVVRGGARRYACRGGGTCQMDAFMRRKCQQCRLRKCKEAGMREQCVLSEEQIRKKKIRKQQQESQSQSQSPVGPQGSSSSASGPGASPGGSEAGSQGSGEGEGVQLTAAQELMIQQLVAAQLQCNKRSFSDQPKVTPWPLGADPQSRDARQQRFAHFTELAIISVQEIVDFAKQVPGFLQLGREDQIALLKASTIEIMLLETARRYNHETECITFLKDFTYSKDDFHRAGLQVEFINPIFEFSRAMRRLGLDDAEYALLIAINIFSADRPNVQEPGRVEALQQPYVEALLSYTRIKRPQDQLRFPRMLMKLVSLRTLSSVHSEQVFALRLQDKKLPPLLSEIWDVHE

[14] = target: T3, Nuclear receptor subfamily 0 group B member 1 (Homo sapiens, UniProt P51843); assay: Luminescence-based cell-based high throughput dose response assay for inhibitors of the orphan nuclear receptor subfamily 0, group B, member 1 (DAX1; NR0B1). [Related pubchem assays (depositor defined):AID504766, AID504790]; format: functional
T3 sequence (P51843 whole entry): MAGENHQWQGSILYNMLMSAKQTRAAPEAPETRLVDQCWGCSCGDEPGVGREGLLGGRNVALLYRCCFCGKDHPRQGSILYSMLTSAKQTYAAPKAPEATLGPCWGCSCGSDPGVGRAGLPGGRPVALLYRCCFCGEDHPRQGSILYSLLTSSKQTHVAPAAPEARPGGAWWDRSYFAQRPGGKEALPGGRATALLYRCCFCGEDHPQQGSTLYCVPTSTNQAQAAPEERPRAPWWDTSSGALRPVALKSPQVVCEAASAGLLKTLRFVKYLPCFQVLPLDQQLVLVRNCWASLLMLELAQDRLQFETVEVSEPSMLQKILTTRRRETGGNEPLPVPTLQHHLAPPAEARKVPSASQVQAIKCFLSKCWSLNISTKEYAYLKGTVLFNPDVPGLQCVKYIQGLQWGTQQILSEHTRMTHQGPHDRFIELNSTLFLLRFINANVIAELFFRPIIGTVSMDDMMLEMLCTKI

Sequence of Kallikrein-7 (P49862 whole entry): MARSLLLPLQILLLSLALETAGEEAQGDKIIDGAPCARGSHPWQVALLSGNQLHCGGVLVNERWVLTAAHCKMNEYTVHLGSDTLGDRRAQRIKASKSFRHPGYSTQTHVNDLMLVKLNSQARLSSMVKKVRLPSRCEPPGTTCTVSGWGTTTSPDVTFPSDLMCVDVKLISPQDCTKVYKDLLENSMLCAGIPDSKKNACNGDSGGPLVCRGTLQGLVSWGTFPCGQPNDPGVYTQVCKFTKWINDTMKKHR
Sequence of Tumor necrosis factor (P01375 whole entry): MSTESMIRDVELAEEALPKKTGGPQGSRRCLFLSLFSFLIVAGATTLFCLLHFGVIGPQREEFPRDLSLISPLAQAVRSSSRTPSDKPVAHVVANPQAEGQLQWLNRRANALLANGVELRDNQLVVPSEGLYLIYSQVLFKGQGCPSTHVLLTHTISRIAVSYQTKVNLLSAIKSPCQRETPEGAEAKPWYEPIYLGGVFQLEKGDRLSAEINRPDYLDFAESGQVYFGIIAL
Sequence of Sphingosine 1-phosphate receptor 2 (O95136 whole entry): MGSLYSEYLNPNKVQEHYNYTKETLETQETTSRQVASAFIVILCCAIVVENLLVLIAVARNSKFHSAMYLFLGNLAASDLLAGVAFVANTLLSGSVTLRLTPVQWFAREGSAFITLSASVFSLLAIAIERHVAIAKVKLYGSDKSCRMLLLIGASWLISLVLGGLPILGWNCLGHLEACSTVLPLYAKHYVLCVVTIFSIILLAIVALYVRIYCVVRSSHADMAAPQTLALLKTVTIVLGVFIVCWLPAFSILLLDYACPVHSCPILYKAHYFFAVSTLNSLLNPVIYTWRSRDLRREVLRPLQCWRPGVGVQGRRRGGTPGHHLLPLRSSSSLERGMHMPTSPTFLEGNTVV
Sequence of Vasopressin V1b receptor (P47901 whole entry): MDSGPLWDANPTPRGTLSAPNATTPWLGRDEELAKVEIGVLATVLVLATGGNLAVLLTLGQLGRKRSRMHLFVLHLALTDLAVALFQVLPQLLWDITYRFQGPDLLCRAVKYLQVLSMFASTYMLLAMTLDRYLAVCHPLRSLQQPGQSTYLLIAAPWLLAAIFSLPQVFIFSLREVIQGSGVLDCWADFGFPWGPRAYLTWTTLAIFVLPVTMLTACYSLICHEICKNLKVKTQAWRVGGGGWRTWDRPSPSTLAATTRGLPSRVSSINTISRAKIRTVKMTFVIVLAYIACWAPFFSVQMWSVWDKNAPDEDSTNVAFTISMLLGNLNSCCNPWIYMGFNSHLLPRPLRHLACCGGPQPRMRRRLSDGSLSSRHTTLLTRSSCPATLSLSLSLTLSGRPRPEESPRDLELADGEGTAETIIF
Sequence of Disintegrin and metalloproteinase domain-containing protein 17 (P78536 whole entry, the tested form may be a part): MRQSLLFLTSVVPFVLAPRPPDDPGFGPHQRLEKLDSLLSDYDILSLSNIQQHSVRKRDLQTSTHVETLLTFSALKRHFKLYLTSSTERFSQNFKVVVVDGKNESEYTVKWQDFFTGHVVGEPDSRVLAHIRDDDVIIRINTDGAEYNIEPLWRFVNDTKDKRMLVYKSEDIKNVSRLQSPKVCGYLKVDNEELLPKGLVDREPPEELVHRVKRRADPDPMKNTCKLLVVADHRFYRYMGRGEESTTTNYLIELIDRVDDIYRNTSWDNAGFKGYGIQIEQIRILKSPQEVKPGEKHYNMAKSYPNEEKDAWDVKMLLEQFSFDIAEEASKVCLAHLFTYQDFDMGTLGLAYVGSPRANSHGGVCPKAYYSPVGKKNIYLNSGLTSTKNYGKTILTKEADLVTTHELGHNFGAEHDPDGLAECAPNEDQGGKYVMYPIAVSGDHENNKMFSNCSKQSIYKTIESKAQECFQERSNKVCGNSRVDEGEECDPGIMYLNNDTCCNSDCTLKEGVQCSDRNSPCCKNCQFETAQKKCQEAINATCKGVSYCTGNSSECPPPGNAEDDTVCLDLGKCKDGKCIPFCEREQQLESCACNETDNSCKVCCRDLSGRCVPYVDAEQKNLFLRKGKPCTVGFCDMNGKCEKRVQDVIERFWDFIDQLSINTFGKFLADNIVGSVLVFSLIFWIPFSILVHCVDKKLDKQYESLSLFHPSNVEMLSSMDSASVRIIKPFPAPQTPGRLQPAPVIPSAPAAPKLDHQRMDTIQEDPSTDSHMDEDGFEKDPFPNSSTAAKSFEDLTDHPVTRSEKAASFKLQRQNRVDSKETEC
Sequence of Vasopressin V2 receptor (P30518 whole entry): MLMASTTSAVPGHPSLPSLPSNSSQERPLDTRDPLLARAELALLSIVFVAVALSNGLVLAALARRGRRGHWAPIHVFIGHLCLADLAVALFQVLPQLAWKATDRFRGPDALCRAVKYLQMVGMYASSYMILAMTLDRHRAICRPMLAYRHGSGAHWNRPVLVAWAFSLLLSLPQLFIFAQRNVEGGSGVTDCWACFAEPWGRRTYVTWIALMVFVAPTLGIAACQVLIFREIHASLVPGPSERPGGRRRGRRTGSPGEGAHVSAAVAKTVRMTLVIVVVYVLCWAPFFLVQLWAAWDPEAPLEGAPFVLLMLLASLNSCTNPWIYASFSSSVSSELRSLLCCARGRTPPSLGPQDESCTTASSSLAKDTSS

In the case of `O=C(Nc1ccc(NC(=O)c2cccs2)cc1)c1cccs1`, the EC50 (Kallikrein-7) was > 69.5 µM (inactive).
For `COc1ccccc1N(C)S(=O)(=O)c1ccc(C(=O)Nc2ccc(C(N)=O)cc2)cc1`, the EC50 (Kallikrein-7) was 15.8 µM (inactive).
In the case of `COCCN(C(=O)N1CCN(c2ccccc2C)CC1)c1ccc(OC)cc1`, the IC50 [1] was 1 µM (active), the IC50 (Vasopressin V2 receptor) was 19.6 µM (inactive) and the IC50 (Vasopressin V1b receptor) was 29.3 µM (inactive). The IC50 [2] was 0.1 µM (active).
For `CCOc1ccc(NC(=O)c2ccc(CN3CCc4ccccc4C3)cc2)cc1`, the IC50 (Tumor necrosis factor) was 6.05 µM (active) and 2.05 µM (active), the IC50 (HEK293 [3]) was > 20 µM (inactive) and the IC50 (HEK293 [4]) was > 20 µM (inactive). The IC50 [5] was 1.79 µM (active) and 1.13 µM (active), the IC50 (HEK293 [6]) was > 20 µM (inactive) and the IC50 [7] was > 69.5 µM (inactive). The EC50 (HEK293 [8]) was 0.79 µM (active), the IC50 [9] was > 69.5 µM (inactive) and the IC50 (HEK293 [10]) was 3.96 µM (active).
For `Cc1cccc2cc(C(c3nnnn3CC3CCCO3)N3CCc4ccccc4C3)c(=O)[nH]c12` (stereo not given), the EC50 [11] was > 50 µM (not active).
For `Cc1ccc(O)c(-c2cc(-c3ccc(F)cc3)no2)c1`, the IC50 (HEK293 [12]) was > 67.5 µM (inactive), the EC50 (cells) was > 67.5 µM (inactive) and the EC50 [13] was > 67.5 µM (inactive). For the same compound, the IC50 [14] was > 67.5 µM (inactive).
